In patent publication US20260191863A1, “PYRROLOPYRIMIDINE COMPOSITIONS FOR TREATMENT OF ITK MEDIATED CONDITIONS” (ACLARIS THERAPEUTICS, INC., priority 2022, published 2026):

Columns and labels:
Format in all cases: cell-based
ITK (IL2 mRNA) = assay: Pre-clinical human whole blood αCD3/28/IL-2 mRNA (2 hr); conditions: Homo sapiens, 2 h; read-out: Human Whole Blood EC50, αCD3/28/IL-2 mRNA (2 hr)
JAK3 (pSTAT5, lymph) = assay: Pre-clinical human whole blood IL-2/pSTAT5 (20 min), lymphocytes; conditions: Homo sapiens, Lymphocyte, 20 min; read-out: Human Whole Blood EC50, IL-2/pSTAT5 (20 min)
ITK & JAK (IFNγ protein) = assay: Pre-clinical human whole blood αCD3 + IL-15/IFNγ (18 hr); conditions: Homo sapiens, 18 h; read-out: Human Whole Blood EC50, αCD3 + IL-15/IFNγ (18 hr)
[1] = test system: IL15 stimulated IFNγ protein; assay: Pre-clinical human whole blood IL-15/IFNγ (5 hr); conditions: Homo sapiens, 5 h, read-out: Human Whole Blood EC50, IL-15/IFNγ (5 hr)
JAK2 = target: T1, JAK2 (Homo sapiens, UniProt O60674); assay: Cell IC50 JAK2
T1 construct: endogenous in cells

ITK = target: T2, ITK (Homo sapiens, UniProt Q08881); assay: Cell IC50 ITK (Jurkat/pPLCγ1)
T2 construct: (Jurkat/pPLCγ1); endogenous in cells; host or cells: Jurkat
T2 sequence (Q08881 1-620): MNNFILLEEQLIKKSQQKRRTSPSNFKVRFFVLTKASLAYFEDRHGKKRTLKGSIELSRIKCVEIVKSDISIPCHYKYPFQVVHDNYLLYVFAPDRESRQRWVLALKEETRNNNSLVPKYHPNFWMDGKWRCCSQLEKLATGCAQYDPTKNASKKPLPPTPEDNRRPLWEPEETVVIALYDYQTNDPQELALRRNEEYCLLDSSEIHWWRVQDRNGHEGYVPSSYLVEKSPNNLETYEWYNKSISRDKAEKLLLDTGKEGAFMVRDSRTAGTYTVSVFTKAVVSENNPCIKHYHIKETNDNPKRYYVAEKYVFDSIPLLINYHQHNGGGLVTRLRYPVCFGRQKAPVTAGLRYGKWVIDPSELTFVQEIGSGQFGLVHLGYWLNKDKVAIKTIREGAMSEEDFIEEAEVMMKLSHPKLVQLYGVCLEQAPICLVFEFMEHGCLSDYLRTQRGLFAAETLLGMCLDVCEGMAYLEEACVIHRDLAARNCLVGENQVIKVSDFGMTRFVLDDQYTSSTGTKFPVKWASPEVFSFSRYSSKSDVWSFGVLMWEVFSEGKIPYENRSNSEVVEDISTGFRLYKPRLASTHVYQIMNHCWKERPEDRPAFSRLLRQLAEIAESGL

T1 sequence (O60674 whole entry): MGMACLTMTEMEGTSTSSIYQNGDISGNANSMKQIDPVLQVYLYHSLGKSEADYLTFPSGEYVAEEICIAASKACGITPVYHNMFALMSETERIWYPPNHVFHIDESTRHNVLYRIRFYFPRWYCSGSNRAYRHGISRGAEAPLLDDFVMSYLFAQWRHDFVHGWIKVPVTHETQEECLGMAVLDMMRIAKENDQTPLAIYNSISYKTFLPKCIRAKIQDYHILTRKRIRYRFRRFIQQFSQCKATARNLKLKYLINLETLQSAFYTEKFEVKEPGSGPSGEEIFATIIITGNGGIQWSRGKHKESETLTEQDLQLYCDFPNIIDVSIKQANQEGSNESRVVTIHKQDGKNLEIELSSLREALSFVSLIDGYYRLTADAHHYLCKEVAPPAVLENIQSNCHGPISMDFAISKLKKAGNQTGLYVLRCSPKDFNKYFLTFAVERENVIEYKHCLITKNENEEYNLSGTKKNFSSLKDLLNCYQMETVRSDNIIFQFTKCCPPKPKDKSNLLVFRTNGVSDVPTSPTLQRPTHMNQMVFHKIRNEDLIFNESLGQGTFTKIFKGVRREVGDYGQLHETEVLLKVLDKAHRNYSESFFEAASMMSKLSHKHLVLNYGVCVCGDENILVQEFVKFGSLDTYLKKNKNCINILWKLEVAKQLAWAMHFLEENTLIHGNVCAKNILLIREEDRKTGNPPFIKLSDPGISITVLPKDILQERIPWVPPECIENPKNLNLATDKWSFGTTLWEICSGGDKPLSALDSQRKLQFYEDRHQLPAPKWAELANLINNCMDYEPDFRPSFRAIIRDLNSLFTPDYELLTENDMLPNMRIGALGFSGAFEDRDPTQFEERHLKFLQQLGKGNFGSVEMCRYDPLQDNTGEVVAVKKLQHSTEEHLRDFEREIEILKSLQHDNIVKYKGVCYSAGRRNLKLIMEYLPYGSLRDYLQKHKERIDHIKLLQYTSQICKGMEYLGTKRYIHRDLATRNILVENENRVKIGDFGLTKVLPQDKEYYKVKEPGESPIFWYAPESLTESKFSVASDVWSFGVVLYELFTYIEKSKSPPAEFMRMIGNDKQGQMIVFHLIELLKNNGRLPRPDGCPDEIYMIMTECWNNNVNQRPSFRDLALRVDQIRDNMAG

| Structure (SMILES) | EC50 (ITK (IL2 mRNA)) [nM] | EC50 (JAK3 (pSTAT5, lymph)) [nM] | EC50 (ITK & JAK (IFNγ protein)) [nM] | EC50 [1] [nM] | Cell IC50, JAK2 (JAK2) | Cell IC50, ITK (ITK) |
| --- | --- | --- | --- | --- | --- | --- |
| C=CC(=O)N1C[C@H](Nc2ncnc3[nH]ccc23)CC[C@@H]1C [Ritlecitinib, reference compound] | 740 | […] | 33 | 52 | Inactive | – |
| C[C@@H]1CCN(C(=O)CC#N)C[C@@H]1N(C)c1ncnc2[nH]ccc12 [Tofacitinib, reference compound] | – | – | – | – | – | Inactive |
